From PMC4370629, “Structural and Functional Studies of Phosphoenolpyruvate Carboxykinase from Mycobacterium tuberculosis” (PLoS ONE, 2015)

Molecular target: T1, Mtb Pck (Mycobacterium tuberculosis, UniProt P9WIH3)
T1 construct: gene pckG
Experiment: biochemical

T1 sequence (P9WIH3 whole entry): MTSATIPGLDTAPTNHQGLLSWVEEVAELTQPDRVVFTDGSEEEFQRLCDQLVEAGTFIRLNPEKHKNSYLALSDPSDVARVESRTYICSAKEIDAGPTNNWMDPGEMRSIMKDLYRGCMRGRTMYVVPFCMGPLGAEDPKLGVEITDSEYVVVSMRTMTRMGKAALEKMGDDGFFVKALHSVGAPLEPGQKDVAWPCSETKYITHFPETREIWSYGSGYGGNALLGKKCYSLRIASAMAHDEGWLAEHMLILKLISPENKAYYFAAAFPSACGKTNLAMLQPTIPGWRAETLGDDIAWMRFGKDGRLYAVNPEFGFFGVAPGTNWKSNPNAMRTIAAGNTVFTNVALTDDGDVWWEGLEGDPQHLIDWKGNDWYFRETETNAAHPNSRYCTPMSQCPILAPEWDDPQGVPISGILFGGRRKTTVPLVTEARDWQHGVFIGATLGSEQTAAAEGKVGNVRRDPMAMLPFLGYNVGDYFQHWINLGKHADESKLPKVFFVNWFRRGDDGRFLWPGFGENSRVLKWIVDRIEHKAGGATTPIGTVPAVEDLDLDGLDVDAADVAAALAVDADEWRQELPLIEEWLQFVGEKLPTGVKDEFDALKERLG

Structure (SMILES): Nc1nc2c(ncn2[C@@H]2O[C@H](COP(=O)(O)OP(=O)(O)OP(=O)(O)O)[C@@H](O)[C@H]2O)c(=O)[nH]1 [GTP]
- Kd: 7.3 µM
